Tests used:
Type in all cases: in vivo
Brachiaria decumbens [1] = experiment: Post-emergence herbicidal efficacy, Example 3 (L-glufosinate ammonium, saflufenacil and 2,4-D)
Procedure: (§1) Methodology: Trials were carried out to evaluate the efficacy of the combination comprising L-glufosinate ammonium and additional herbicides on Brachiaria decumbens weed.
(§2) The soil used was sandy clay loam-sand: 68.0%; silt: 8.0%; clay: 24.0%.
(§3) All treatments were in 3 replications per treatment with a spray volume of about 150 L/ha.
(§4) The expected efficacy of a combination of L-glufosinate ammonium and the other herbicides was calculated using the well-established Colby method. Any difference between the observed and “expected” efficacy could be attributed to synergy between the two compounds.
(§5) In the Colby method, the expected (or predicted) response of a combination of herbicides is calculated by taking the product of the observed response for each individual component of the combination when applied alone, divided by 100, and subtracting this value from the sum of the observed response for each component when applied alone. An unexpected enhancement in efficacy of the combination is then determined by comparing the observed response of the combination to the expected (or predicted) response as calculated from the observed response of each individual component alone. If the observed response of the combination is greater than the expected (or predicted) response, or stated conversely, if the difference between the observed and expected response is greater than zero, then the combination is said to be synergistic or unexpectedly effective (Colby, S. R., Weeds, 1967 (15), p. 20-22). The Colby method requires only a single dose of each herbicide applied alone and the mixture of both doses. The formula used to calculate the expected efficacy (EE) which was compared with the observed efficacy (OE) to determine the efficacy of the present disclosure is explained hereinbelow:
(§6) The expected efficacy for a combination of three active ingredients is as follows:
(§7) wherein, • A=Observed efficacy of active ingredient A at the same concentration as used in the mixture. • B=Observed efficacy of the active ingredient B at the same concentration as used in the mixture. • C=Observed efficacy of the active ingredient C at the same concentration as used in the mixture.
Experiment was conducted to assess the efficacy of the herbicidal combination comprising L-glufosinate ammonium, saflufenacil and 2,4-D to control the weed Brachiaria decumbens.
The target weed was Brachiaria decumbens, and the concentration of the herbicide and the results are recorded in Table 4.

Brachiaria decumbens [2] = experiment: Post-emergence herbicidal efficacy, Example 1 (L-glufosinate ammonium and saflufenacil)
Procedure: as §1, §2, §3, §4, §5
The expected efficacy for a combination of two active ingredients is as follows:
as §7
Experiment was conducted to assess the efficacy of the herbicidal combination comprising L-glufosinate ammonium and saflufenacil to control Brachiaria decumbens.
The percentage efficacy was calculated after 3, 7, 14, 21, 28 and 35 days of applications (DAA). The target weed was Brachiaria decumbens, and the results are recorded in Table 2.

Brachiaria decumbens [3] = experiment: Post-emergence herbicidal efficacy, Example 2 (L-glufosinate ammonium, saflufenacil and triclopyr)
Procedure: as §1, §2, §3, §4, §5, §6, §7
Experiment was conducted to assess the efficacy of the herbicidal combination comprising L-glufosinate ammonium, saflufenacil and triclopyr to control the weed Brachiaria decumbens.
The percentage efficacy was calculated after 3, 7, 14, 21, 28 and 35 days of application (DAA). The target weed was Brachiaria decumbens, and the concentration of the herbicide and the results are recorded in Table 3.

O=C(O)COc1ccc(Cl)cc1Cl [2,4-D]
Observed efficacy (%) of 2,4-D (228 g a.i./ha) (Brachiaria decumbens [1]; 3 DAA): 0%
Observed efficacy (%) of 2,4-D (228 g a.i./ha) (Brachiaria decumbens [1]; 7 DAA): 0%
Observed efficacy (%) of 2,4-D (228 g a.i./ha) (Brachiaria decumbens [1]; 14 DAA): 0%
Observed efficacy (%) of 2,4-D (228 g a.i./ha) (Brachiaria decumbens [1]; 21 DAA): 0%
Observed efficacy (%) of 2,4-D (228 g a.i./ha) (Brachiaria decumbens [1]; 28 DAA): 0%
Observed efficacy (%) of 2,4-D (228 g a.i./ha) (Brachiaria decumbens [1]; 35 DAA): 0%

CP(=O)(O)CC[C@H](N)C(=O)O.N [L-glufosinate ammonium]
Observed efficacy (%) of L-glufosinate ammonium (150 g a.i./ha) (Brachiaria decumbens [2]; 3 DAA): 65%
Observed efficacy (%) of L-glufosinate ammonium (150 g a.i./ha) (Brachiaria decumbens [2]; 7 DAA): 75%
Observed efficacy (%) of L-glufosinate ammonium (150 g a.i./ha) (Brachiaria decumbens [2]; 14 DAA): 75%
Observed efficacy (%) of L-glufosinate ammonium (150 g a.i./ha) (Brachiaria decumbens [2]; 21 DAA): 70%
Observed efficacy (%) of L-glufosinate ammonium (150 g a.i./ha) (Brachiaria decumbens [2]; 28 DAA): 60%
Observed efficacy (%) of L-glufosinate ammonium (150 g a.i./ha) (Brachiaria decumbens [2]; 35 DAA): 55%
Observed efficacy (%) of L-glufosinate ammonium (150 g a.i./ha) (Brachiaria decumbens [3]; 3 DAA): 65%
Observed efficacy (%) of L-glufosinate ammonium (150 g a.i./ha) (Brachiaria decumbens [3]; 7 DAA): 75%
Observed efficacy (%) of L-glufosinate ammonium (150 g a.i./ha) (Brachiaria decumbens [3]; 14 DAA): 75%
Observed efficacy (%) of L-glufosinate ammonium (150 g a.i./ha) (Brachiaria decumbens [3]; 21 DAA): 70%
Observed efficacy (%) of L-glufosinate ammonium (150 g a.i./ha) (Brachiaria decumbens [3]; 28 DAA): 65%
Observed efficacy (%) of L-glufosinate ammonium (150 g a.i./ha) (Brachiaria decumbens [3]; 35 DAA): 60%
Observed efficacy (%) of L-glufosinate ammonium (150 g a.i./ha) (Brachiaria decumbens [1]; 3 DAA): 65%
Observed efficacy (%) of L-glufosinate ammonium (150 g a.i./ha) (Brachiaria decumbens [1]; 7 DAA): 75%
Observed efficacy (%) of L-glufosinate ammonium (150 g a.i./ha) (Brachiaria decumbens [1]; 14 DAA): 75%
Observed efficacy (%) of L-glufosinate ammonium (150 g a.i./ha) (Brachiaria decumbens [1]; 21 DAA): 70%
Observed efficacy (%) of L-glufosinate ammonium (150 g a.i./ha) (Brachiaria decumbens [1]; 28 DAA): 65%
Observed efficacy (%) of L-glufosinate ammonium (150 g a.i./ha) (Brachiaria decumbens [1]; 35 DAA): 60%

CC(C)N(C)S(=O)(=O)NC(=O)c1cc(-n2c(=O)cc(C(F)(F)F)n(C)c2=O)c(F)cc1Cl [Saflufenacil]
Observed efficacy (%) of Saflufenacil (30 g a.i./ha) (Brachiaria decumbens [2]; 3 DAA): 30%
Observed efficacy (%) of Saflufenacil (30 g a.i./ha) (Brachiaria decumbens [2]; 7 DAA): 30%
Observed efficacy (%) of Saflufenacil (30 g a.i./ha) (Brachiaria decumbens [2]; 14 DAA): 25%
Observed efficacy (%) of Saflufenacil (30 g a.i./ha) (Brachiaria decumbens [2]; 21 DAA): 10%
Observed efficacy (%) of Saflufenacil (30 g a.i./ha) (Brachiaria decumbens [2]; 28 DAA): 0%
Observed efficacy (%) of Saflufenacil (30 g a.i./ha) (Brachiaria decumbens [2]; 35 DAA): 0%
Observed efficacy (%) of Saflufenacil (30 g a.i./ha) (Brachiaria decumbens [3]; 3 DAA): 30%
Observed efficacy (%) of Saflufenacil (30 g a.i./ha) (Brachiaria decumbens [3]; 7 DAA): 30%
Observed efficacy (%) of Saflufenacil (30 g a.i./ha) (Brachiaria decumbens [3]; 14 DAA): 20%
Observed efficacy (%) of Saflufenacil (30 g a.i./ha) (Brachiaria decumbens [3]; 21 DAA): 5%
Observed efficacy (%) of Saflufenacil (30 g a.i./ha) (Brachiaria decumbens [3]; 28 DAA): 0%
Observed efficacy (%) of Saflufenacil (30 g a.i./ha) (Brachiaria decumbens [3]; 35 DAA): 0%
Observed efficacy (%) of Saflufenacil (30 g a.i./ha) (Brachiaria decumbens [1]; 3 DAA): 30%
Observed efficacy (%) of Saflufenacil (30 g a.i./ha) (Brachiaria decumbens [1]; 7 DAA): 30%
Observed efficacy (%) of Saflufenacil (30 g a.i./ha) (Brachiaria decumbens [1]; 14 DAA): 20%
Observed efficacy (%) of Saflufenacil (30 g a.i./ha) (Brachiaria decumbens [1]; 21 DAA): 5%
Observed efficacy (%) of Saflufenacil (30 g a.i./ha) (Brachiaria decumbens [1]; 28 DAA): 0%
Observed efficacy (%) of Saflufenacil (30 g a.i./ha) (Brachiaria decumbens [1]; 35 DAA): 0%

O=C(O)COc1nc(Cl)c(Cl)cc1Cl [Triclopyr]
Observed efficacy (%) of Triclopyr (228 g a.i./ha) (Brachiaria decumbens [3]; 3 DAA): 0%
Observed efficacy (%) of Triclopyr (228 g a.i./ha) (Brachiaria decumbens [3]; 7 DAA): 0%
Observed efficacy (%) of Triclopyr (228 g a.i./ha) (Brachiaria decumbens [3]; 14 DAA): 20%
Observed efficacy (%) of Triclopyr (228 g a.i./ha) (Brachiaria decumbens [3]; 21 DAA): 10%
Observed efficacy (%) of Triclopyr (228 g a.i./ha) (Brachiaria decumbens [3]; 28 DAA): 5%
Observed efficacy (%) of Triclopyr (228 g a.i./ha) (Brachiaria decumbens [3]; 35 DAA): 0%

Reference: patent US20260248135A1, “HERBICIDAL COMBINATIONS AND A METHOD FOR CONTROLLING UNDESIRED VEGETATION” (UPL Mauritius Limited, priority 2022, published 2026)
